According to PMC3750315, “The production and characterization of a new active lipase from Acremonium alcalophilum using a plant bioreactor” (Biotechnology for Biofuels, 2013):

Molecular target: T1, LipA (Sodiomyces alcalophilus, UniProt P0CT91)
T1 construct: Transient in Nicotiana benthamiana; vector adds Pr1b signal peptide, Xpress tag, C-myc tag, KDEL (tags kept); N-glycosylated, about 56 kDa on SDS-PAGE
Experiment: p-nitrophenol release, […] nm
Format: biochemical
Conditions: 100 mM phosphate buffer pH 8.0, 40°C

T1 sequence (P0CT91 23-416): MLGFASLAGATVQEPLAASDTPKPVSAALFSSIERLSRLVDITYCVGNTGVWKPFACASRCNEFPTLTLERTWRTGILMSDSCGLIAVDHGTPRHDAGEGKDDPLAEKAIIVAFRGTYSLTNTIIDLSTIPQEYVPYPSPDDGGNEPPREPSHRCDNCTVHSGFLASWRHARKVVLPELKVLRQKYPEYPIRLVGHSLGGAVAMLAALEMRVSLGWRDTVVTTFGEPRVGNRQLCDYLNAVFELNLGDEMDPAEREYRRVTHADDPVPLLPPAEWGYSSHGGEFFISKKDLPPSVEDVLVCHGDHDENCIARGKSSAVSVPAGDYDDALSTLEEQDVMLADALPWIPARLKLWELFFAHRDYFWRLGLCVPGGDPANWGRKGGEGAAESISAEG

In order of rising Km:
1. CCCCCCCCCCCCCC(=O)Oc1ccc([N+](=O)[O-])cc1 [pNP myristate (C14)]  70 µM
2. CCCCCCCC(=O)Oc1ccc([N+](=O)[O-])cc1 [pNP caprylate (C8)]  100 µM
3. CCCCCCCCCCCCCCCC(=O)Oc1ccc([N+](=O)[O-])cc1 [pNP palmitate (C16)]  100 µM
4. CC(=O)Oc1ccc([N+](=O)[O-])cc1 [pNP acetate (C2)]  150 µM
5. CCCC(=O)Oc1ccc([N+](=O)[O-])cc1 [pNP butyrate (C4)]  160 µM
